According to PubChem BioAssay AID212 (DTP/NCI, 2004):
Several values for one entry are separate records, joined by “and”; a condition that tells them apart may be missing. Equal values may be shown once. Results filed as inconclusive are left out.

Test system: BDF1 mice, colon carcinoma 38 sc, T/C %
Assay: NCI In Vivo Anticancer Drug Screen. Data for tumor model Colon Carcinoma 38 (subcutaneous) in B6D2F1 (BDF1) mice
Conditions: endpoint: median tumor weight (est.), higher = larger tumour
How it was run: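 Mice with transplanted tumors are treated with compound or vehicle. Survival or tumor size is then measured in both groups. The ratio of treated to control gives the reported figure.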

[1] = dose: 200.0 mg/kg/injection, schedule: Q07DX002 (ip), vehicle: saline with Tween-80
[2] = dose: 12.5 mg/kg/injection, schedule: Q07DX002 (ip), vehicle: Klucel (hydroxypropylcellulose) (HPC)
[3] = dose: 25.0 mg/kg/injection, schedule: Q07DX002 (ip), vehicle: Klucel (hydroxypropylcellulose) (HPC)
[4] = dose: 50.0 mg/kg/injection, schedule: Q07DX002 (ip), vehicle: Klucel (hydroxypropylcellulose) (HPC)
[5] = dose: 100.0 mg/kg/injection, schedule: Q07DX002 (ip), vehicle: Klucel (hydroxypropylcellulose) (HPC)
[6] = dose: 12.5 mg/kg/injection, schedule: Q07DX002 (ip), vehicle: saline
[7] = dose: 50.0 mg/kg/injection, schedule: Q07DX002 (ip), vehicle: saline
[8] = dose: 200.0 mg/kg/injection, schedule: Q07DX002 (ip), vehicle: Klucel (hydroxypropylcellulose) (HPC)
[9] = dose: 400.0 mg/kg/injection, schedule: Q07DX002 (ip), vehicle: Klucel (hydroxypropylcellulose) (HPC)
[10] = dose: 25.0 mg/kg/injection, schedule: Q07DX002 (ip), vehicle: saline
[11] = dose: 400.0 mg/kg/injection, schedule: Q07DX002 (ip), vehicle: saline
[12] = dose: 200.0 mg/kg/injection, schedule: Q07DX002 (ip), vehicle: saline

Q: Which T/C (dose: 5.0 mg/kg/injection, schedule: Q01DX005 (iv), vehicle: other) does the source give for O=C1c2ccccc2C(=O)c2c1cn1c2Cc2ccccc2C1 here?
A: 36 % of control

Q: And the T/C (dose: 10.0 mg/kg/injection, schedule: Q01DX005 (iv), vehicle: other)?
A: 36 % of control

Q: What about the T/C (dose: 18.0 mg/kg/injection, schedule: Q07DX002 (ip), vehicle: Klucel (hydroxypropylcellulose) (HPC)) of the same compound?
A: 219 % of control

Q: And the T/C (dose: 18.75 mg/kg/injection, schedule: Q07DX002 (ip), vehicle: Klucel (hydroxypropylcellulose) (HPC))?
A: 63 % of control

Q: What about the T/C (dose: 20.0 mg/kg/injection, schedule: Q01DX005 (iv), vehicle: other) of the same compound?
A: 36 % of control

Q: And the T/C (dose: 37.0 mg/kg/injection, schedule: Q07DX002 (ip), vehicle: Klucel (hydroxypropylcellulose) (HPC))?
A: 89 % of control

Q: And the T/C (dose: 37.5 mg/kg/injection, schedule: Q07DX002 (ip), vehicle: Klucel (hydroxypropylcellulose) (HPC))?
A: 63 % of control

Q: And the T/C (dose: 40.0 mg/kg/injection, schedule: Q01DX005 (iv), vehicle: other)?
A: 23 % of control

Q: What about the T/C (dose: 75.0 mg/kg/injection, schedule: Q07DX002 (ip), vehicle: Klucel (hydroxypropylcellulose) (HPC)) of the same compound?
A: 38 % of control and 41 % of control and 59 % of control

Q: And the T/C (dose: 75.0 mg/kg/injection, schedule: Q07DX002 (iv), vehicle: other)?
A: 95 % of control

Q: What about the T/C (dose: 100.0 mg/kg/injection, schedule: Q07DX002 (ip), vehicle: other) of the same compound?
A: 74 % of control

Q: What about the T/C (dose: 100.0 mg/kg/injection, schedule: Q07DX002 (ip), vehicle: saline with Tween-80) of the same compound?
A: 63 % of control

Q: What about the T/C (dose: 100.0 mg/kg/injection, schedule: Q07DX002 (iv), vehicle: other) of the same compound?
A: 120 % of control

Q: What about the T/C (dose: 150.0 mg/kg/injection, schedule: Q07DX002 (ip), vehicle: other) of the same compound?
A: 41 % of control

Q: What about the T/C (dose: 200.0 mg/kg/injection, schedule: Q07DX002 (ip), vehicle: other) of the same compound?
A: 41 % of control

Q: And the T/C [1]?
A: 61 % of control

Q: And the T/C (dose: 300.0 mg/kg/injection, schedule: Q07DX002 (ip), vehicle: Klucel (hydroxypropylcellulose) (HPC))?
A: 8 % of control and 13 % of control

Q: Which results are given for CC1=CC2OC3C(OC(=O)c4ccccc4)C(OC(=O)c4ccccc4)C(C)(C2(COC(=O)c2ccccc2)CC1)C31CO1 (stereo not given)?
A: T/C (dose: 3.0 mg/kg/injection, schedule: Q07DX002 (ip), vehicle: saline with Tween-80): 166 % of control; T/C (dose: 6.0 mg/kg/injection, schedule: Q07DX003 (ip), vehicle: saline with Tween-80): 152 % of control; T/C (dose: 12.0 mg/kg/injection, schedule: Q07DX003 (ip), vehicle: saline with Tween-80): 184 % of control

Q: Which results are given for CN=S(=O)(OCCCCCOS(=O)(=NC)c1ccccc1)c1ccccc1 (stereo not given)?
A: T/C (dose: 12.5 mg/kg/injection, schedule: Q07DX002 (ip), vehicle: saline with Tween-80): 58 % of control; T/C (dose: 25.0 mg/kg/injection, schedule: Q07DX002 (ip), vehicle: saline with Tween-80): 74 % of control; T/C (dose: 50.0 mg/kg/injection, schedule: Q07DX002 (ip), vehicle: saline with Tween-80): 69 % of control; T/C [1]: 59 % of control

Q: What does the source list for CC(C)[NH-].CC(C)[NH-].O.O.[Cl][Pt+2][Cl]?
A: T/C (dose: 3.12 mg/kg/injection, schedule: Q07DX003 (ip), vehicle: dextrose): 90 % of control; T/C (dose: 6.25 mg/kg/injection, schedule: Q07DX002 (ip), vehicle: dextrose): 41 % of control; T/C (dose: 12.5 mg/kg/injection, schedule: Q07DX002 (ip), vehicle: dextrose): 81 % of control; T/C (dose: 25.0 mg/kg/injection, schedule: Q07DX002 (ip), vehicle: dextrose): 39 % of control; T/C (dose: 25.0 mg/kg/injection, schedule: Q07DX003 (ip), vehicle: dextrose): 52 % of control

Q: With CN(C)C(=O)c1cccc(COc2ccc(N3C(N)=NC(N)=NC3(C)C)cc2Cl)c1 as the compound, how does the T/C (dose: 32.0 mg/kg/injection, schedule: Q07DX003 (ip), vehicle: saline) read?
A: 87 % of control and 98 % of control

Q: And the T/C (dose: 64.0 mg/kg/injection, schedule: Q07DX003 (ip), vehicle: saline)?
A: 50 % of control

Q: What about the T/C (dose: 128.0 mg/kg/injection, schedule: Q07DX003 (ip), vehicle: saline) of the same compound?
A: 66 % of control

Q: And the T/C (dose: 256.0 mg/kg/injection, schedule: Q07DX003 (ip), vehicle: saline)?
A: 59 % of control

Q: With C[N+](C)(C)c1cc2c(nn1)Nc1ccccc1S2 as the compound, how does the T/C (dose: 6.25 mg/kg/injection, schedule: Q07DX002 (ip), vehicle: Klucel (hydroxypropylcellulose) (HPC)) read?
A: 109 % of control

Q: And the T/C [2]?
A: 122 % of control

Q: And the T/C [3]?
A: 89 % of control and 90 % of control

Q: What about the T/C [4] of the same compound?
A: 97 % of control

Q: And the T/C [5]?
A: 89 % of control

Q: With OCCOCCN1CCN(CCCN2c3ccccc3Sc3ccc(C(F)(F)F)cc32)CC1 as the compound, how does the T/C [6] read?
A: 94 % of control

Q: And the T/C [7]?
A: 99 % of control

Q: How did the T/C [2] turn out when C=CCNc1ccc(C)cc1 was run?
A: 72 % of control

Q: What about the T/C [3] of the same compound?
A: 92 % of control

Q: What about the T/C [4] of the same compound?
A: 66 % of control

Q: What about the T/C [5] of the same compound?
A: 86 % of control

Q: What about the T/C [8] of the same compound?
A: 78 % of control

Q: CC(=O)Nc1ccc(/C=N/NC(N)=S)cc1 was tested. Which T/C [5] did it give?
A: 117 % of control and 98 % of control

Q: And the T/C [9]?
A: 98 % of control

Q: And the T/C (dose: 450.0 mg/kg/injection, schedule: Q07DX002 (ip), vehicle: saline with Tween-80)?
A: 86 % of control

Q: What about the T/C (dose: 900.0 mg/kg/injection, schedule: Q07DX002 (ip), vehicle: saline with Tween-80) of the same compound?
A: 57 % of control

Q: And the T/C (dose: 1800.0 mg/kg/injection, schedule: Q07DX002 (ip), vehicle: saline with Tween-80)?
A: 119 % of control

Q: Which T/C [6] does the source give for CC1(C)OC(=O)N(CO)C1=O here?
A: 162 % of control

Q: And the T/C [10]?
A: 94 % of control

Q: And the T/C [7]?
A: 120 % of control and 123 % of control

Q: What about the T/C [11] of the same compound?
A: 257 % of control

Q: NC(=O)c1ncn(C2OC(CO)C(O)C2O)c1O (stereo not given) was tested. Which T/C [3] did it give?
A: 118 % of control

Q: What about the T/C (dose: 28.0 mg/kg/injection, schedule: Q07DX002 (ip), vehicle: Klucel (hydroxypropylcellulose) (HPC)) of the same compound?
A: 51 % of control

Q: And the T/C [4]?
A: 90 % of control

Q: What about the T/C (dose: 56.0 mg/kg/injection, schedule: Q07DX002 (ip), vehicle: Klucel (hydroxypropylcellulose) (HPC)) of the same compound?
A: 48 % of control

Q: What about the T/C (dose: 112.0 mg/kg/injection, schedule: Q07DX002 (ip), vehicle: Klucel (hydroxypropylcellulose) (HPC)) of the same compound?
A: 79 % of control

Q: And the T/C [8]?
A: 114 % of control and 98 % of control

Q: What about the T/C (dose: 225.0 mg/kg/injection, schedule: Q07DX002 (ip), vehicle: Klucel (hydroxypropylcellulose) (HPC)) of the same compound?
A: 68 % of control

Q: What about the T/C [9] of the same compound?
A: 105 % of control and 107 % of control

Q: What about the T/C (dose: 450.0 mg/kg/injection, schedule: Q07DX002 (ip), vehicle: Klucel (hydroxypropylcellulose) (HPC)) of the same compound?
A: 61 % of control

Q: And the T/C (dose: 800.0 mg/kg/injection, schedule: Q07DX002 (ip), vehicle: Klucel (hydroxypropylcellulose) (HPC))?
A: 75 % of control

Q: What about the T/C (dose: 900.0 mg/kg/injection, schedule: Q07DX002 (ip), vehicle: Klucel (hydroxypropylcellulose) (HPC)) of the same compound?
A: 61 % of control

Q: Which results are given for Cc1cc2nc3c(=O)[nH]c(=O)nc-3n(CC(O)C(O)C(O)C(O)CO)c2cc1C (stereo not given)?
A: T/C [7]: 100 % of control; T/C (dose: 100.0 mg/kg/injection, schedule: Q07DX002 (ip), vehicle: saline): 124 % of control; T/C (dose: 100.0 mg/kg/injection, schedule: Q07DX002 (ip), vehicle: suspension in saline): 77 % of control; T/C [12]: 108 % of control; T/C [11]: 100 % of control; T/C (dose: 800.0 mg/kg/injection, schedule: Q07DX002 (ip), vehicle: saline): 78 % of control; T/C (dose: 800.0 mg/kg/injection, schedule: Q07DX002 (ip), vehicle: suspension in saline): 58 % of control and 69 % of control; T/C (dose: 1600.0 mg/kg/injection, schedule: Q07DX002 (ip), vehicle: saline): 72 % of control

Q: With Nc1nc(=O)n(C2OC(CO)C(O)C2O)cc1F (stereo not given) as the compound, how does the T/C [6] read?
A: 124 % of control

Q: And the T/C [10]?
A: 211 % of control

Q: And the T/C [7]?
A: 118 % of control and 235 % of control

Q: And the T/C [12]?
A: 60 % of control and 83 % of control

Q: How did the T/C (dose: 6.25 mg/kg/injection, schedule: Q07DX003 (ip), vehicle: Klucel (hydroxypropylcellulose) (HPC)) turn out when NC(CCl)=NCC12CC3CC(CC(C3)C1)C2 was run?
A: 72 % of control

Q: What about the T/C (dose: 25.0 mg/kg/injection, schedule: Q07DX003 (ip), vehicle: Klucel (hydroxypropylcellulose) (HPC)) of the same compound?
A: 39 % of control

Q: And the T/C (dose: 100.0 mg/kg/injection, schedule: Q07DX003 (ip), vehicle: Klucel (hydroxypropylcellulose) (HPC))?
A: 94 % of control
